Test results taken from patent US11273169B2, “Food for improving intestinal environment” (AJINOMOTO CO., INC., priority 2017, dated 2022).

Tested on: lactic acid bacteria group (mainly, Lactobacillus spp.)
Test: Addition test of γ-PGA and fructo-oligosaccharide to human feces suspension
Assay type: cell-based
Conditions: human feces suspension in PBS medium, anaerobic culture 37° C. 4 days, quantitative PCR, 0.1-1.0% γ-PGA, 0.5% FOS, n=6
Description: The PBS solutions of Examples and Comparative Examples shown in Table 1 were prepared and used as media for feces culture. PBS alone was used as a negative control. As γ-PGA, polyglutamic acid “CALTAKE” manufactured by Ajinomoto Co., Inc. was used, and as FOS, fructo-oligosaccharide manufactured by Wako Pure Chemical Industries, Ltd. was used.
Thereafter, 10 ml each was dispensed into glass vials and the glass vials were sterilized by autoclave, made anaerobic, and sealed with a butyl rubber stopper. The feces suspension was prepared by collecting about 10 g of feces from 6 healthy individuals (3 men and 3 women) in their 20s to 40s and suspending same in 80 ml of anaerobic PBS. […] DNA was extracted from this pellet using ISOFECAL for BeadsBeat (manufactured by NIPPON GENE CO., LTD.), and quantitative PCR was performed using GeneAce SYBR qPCR Mix α (manufactured by NIPPON GENE CO., LTD.). Quantitative PCR was performed under the conditions of 45 cycles of 95° C. for 30 sec and 60° C. for 60 sec after 95° C. for 10 min. Primers for quantitative PCR used for detection of lactic acid bacteria group (mainly, Lactobacillus spp.) were as follows.
Using the results obtained by quantitative PCR, the relative amount when PBS alone (negative control) is 1 was calculated, and the results were normalized with z-score. […]

γ-polyglutamic acid [γ-PGA]
proliferation of the lactic acid bacteria group: not observed
